Measured values: US5703236A, “Tetrahydrofuran antifungals” (Schering Corporation, priority 1995, dated 1997)

Key:
[1] = system: Candida albicans; test: conventional broth dilution in vitro antifungal test, Candida albicans; type: cell-based; settings: 26 strains; for percentage of strains with MFCs ≤ 1 mcg/mL: Table R (MFCs); for PERCENTAGE OF STRAINS WITH MICs ≤ 1 MCG/ML: Table Q
Description: (§1) The in vitro antifungal activity tests were performed via conventional broth dilution methods in Sabouraud dextrose broth ("SDB") medium and Eagles Minimum Essential Medium ("EMEM") against a large number of fungi. Minimum Inhibitory Concentrations ("MICs") were measured after 24, 48 and 72 hour tests. In many cases, Minimum Fungicidial Concentrations ("MFCS") were measured after 48 and 72 hours.

[2] = system: Candida tropicalis & stellatoidea; test: conventional broth dilution in vitro antifungal test, Candida tropicalis & stellatoidea; type: cell-based; settings: 5 strains
Description: as §1

[3] = system: Candida krusei; test: conventional broth dilution in vitro antifungal test, Candida krusei; type: cell-based; settings: 16 strains
Description: as §1

[4] = system: Aspergillus; test: conventional broth dilution in vitro antifungal test, Aspergillus; type: cell-based, Aspergillus flavus, fumigatus and other species; settings: 37 strains
Description: as §1

[5] = system: Cryptococcus neoformans; test: conventional broth dilution in vitro antifungal test, Cryptococcus neoformans; type: cell-based; settings: 3 strains; for MIC 90: Table S
Description: as §1

[6] = system: Dermatophytes; test: conventional broth dilution in vitro antifungal test, dermatophytes; type: cell-based, T. rubrum, T. mentagrophytes, and T. tonsurans; settings: 6 strains
[7] = system: Candida glabrata; test: conventional broth dilution in vitro antifungal test, Candida glabrata; type: cell-based; settings: 9 strains; for percentage of strains with MFCs ≤ 1 mcg/mL: Table R (MFCs); for PERCENTAGE OF STRAINS WITH MICs ≤ 1 MCG/ML: Table Q
Description: as §1

[8] = system: cytochrome P-450 liver drug metabolizing enzymes; test: induction of cytochrome P-450 liver drug metabolizing enzymes, in vivo rat model; settings: oral administration
[9] = serum levels, half lives and tissue distribution following oral dosing; type: in vivo; settings: mice, rats, dogs and monkeys, methyl cellulose formulation

| SMILES | percentage of strains with MFCs ≤ 1 mcg/mL [1] [%] | PERCENTAGE OF STRAINS WITH MICs ≤ 1 MCG/ML ([2]; Table R (MFCs)) [%] | PERCENTAGE OF STRAINS WITH MICs ≤ 1 MCG/ML ([3]; Table R (MFCs)) [%] | PERCENTAGE OF STRAINS WITH MICs ≤ 1 MCG/ML ([4]; Table R (MFCs)) [%] | PERCENTAGE OF STRAINS WITH MICs ≤ 1 MCG/ML ([5]; Table R (MFCs)) [%] | PERCENTAGE OF STRAINS WITH MICs ≤ 1 MCG/ML ([6]; Table R (MFCs)) [%] | percentage of strains with MFCs ≤ 1 mcg/mL [7] [%] | induction of cytochrome P-450 liver drug metabolizing enzymes [8] | serum levels compared to azoles of similar structure [9] | PERCENTAGE OF STRAINS WITH MICs ≤ 1 MCG/ML [1] [%] | PERCENTAGE OF STRAINS WITH MICs ≤ 1 MCG/ML ([2]; Table Q) [%] | PERCENTAGE OF STRAINS WITH MICs ≤ 1 MCG/ML ([3]; Table Q) [%] | PERCENTAGE OF STRAINS WITH MICs ≤ 1 MCG/ML ([4]; Table Q) [%] | PERCENTAGE OF STRAINS WITH MICs ≤ 1 MCG/ML ([5]; Table Q) [%] | MIC 90 [5] | PERCENTAGE OF STRAINS WITH MICs ≤ 1 MCG/ML ([6]; Table Q) [%] | PERCENTAGE OF STRAINS WITH MICs ≤ 1 MCG/ML [7] [%] |
| --- | --- | --- | --- | --- | --- | --- | --- | --- | --- | --- | --- | --- | --- | --- | --- | --- | --- |
| OC(Cn1cncn1)(Cn1cncn1)c1ccc(F)cc1F [FLZ, fluconazole, reference compound] | 100 | 100 | 0 | 0 | 0 | 0 | 0 |  |  |  |  |  |  |  |  |  |  |
| CCC(C(C)O)n1ncn(-c2ccc(N3CCN(c4ccc(OCC5COC(Cn6cncn6)(c6ccc(F)cc6F)C5)cc4)CC3)cc2)c1=O (centres unmarked) [drawing 28] |  |  |  |  |  |  |  | not inducers of various cytochrome P-450 liver drug metabolizing enzymes | consistently higher serum levels |  |  |  |  |  |  |  |  |
| CCC(C(C)O)n1ncn(-c2ccc(N3CCN(c4ccc(OCC5COC(Cn6cncn6)(c6ccc(F)cc6F)C5)cc4)CC3)cc2)c1=O (centres unmarked) [drawing 29] | 100 | 100 | 88 | 50 | 100 | 67 | 22 |  |  | 100 | 100 | 100 | 100 | 100 | .05 MCG/ML | 100 | 22 |
| CCC(C(C)O)n1ncn(-c2ccc(N3CCN(c4ccc(OCC5COC(Cn6cncn6)(c6ccc(F)cc6F)C5)cc4)CC3)cc2)c1=O (centres unmarked) [drawing 30] | 100 | 100 | 94 | 62 | 100 | 83 | 22 |  |  | 100 | 100 | 100 | 100 | 100 | .007 MCG/ML | 100 | 22 |
| CCC(C(C)O)n1ncn(-c2ccc(N3CCN(c4ccc(OCC5COC(Cn6cncn6)(c6ccc(F)cc6F)C5)cc4)CC3)cc2)c1=O (centres unmarked) [drawing 31] | 100 | 100 | 100 | 89 | 100 | 100 | 22 |  |  | 100 | 100 | 100 | 100 | 100 |  | 100 | 33 |
